Patent EP0655506B1 (priority 1994, dated 1995)

Tests used:
Assay in all cases: SDS activity gel analysis, incorporation of ddNMP relative to dNMP (Example 2)
Assay type in all cases: biochemical
[1] = biological target: T1, E. coli DNA polymerase I mutant Pol I C-K1, R D N A K T F I Y G F L Y G (Escherichia coli, UniProt P00582, A759T/F762Y/I760F/I765L/L764F/N761I/R755D/S756N); settings: renatured enzyme in gel; 1.5 µM 4dNTPs with or without 30 µM ddTTP; 37 °C 4 hr
T1 construct: the large fragment of E. coli DNA polymerase I (Klenow fragment); made in house; crude lysate, renatured in gel
Method: (§1) Mutant DNA polymerases are screened for their ability to incorporate dideoxynucleotides by SDS activity gel analysis. The procedure is a modification of that described by Spanos and Hübscher 91 Methods in Enzymology 263, 1983 and Karawya et al. 135 Analytical Biochemistry 318, 1983. Briefly, 10 ml of cells are induced for 4 to 6 hours and then pelleted. The cell pellet is resuspended in 0.3 ml 25 mM Tris HCl, pH 7.0, 5 mM EDTA. 20 µl of the resuspended cells are mixed with 40 µl of a solution of 1% SDS (sodium dodecyl sulfate), 2% mercaptoethanol, 30 % glycerol, 0.04% bromphenol blue, and 100 mM TrisHCl, pH 6.8. The mixtures are incubated at 37 °C for 5 min, and then 20 µl aliquots are loaded in duplicate onto two SDS polyacrylamide gels. The SDS polyacrylamide gels consist of a resolving gel that contains 8% polyacrylamide, 0.27% bisacrylamide, 190 mM TrisHCl, pH 8.8, 0.05% SDS, and 25 µg/ml denatured salmon sperm DNA, and a stacking gel that consists of 5% polyacrylamide, 0.17% bisacrylamide, 150 mM TrisHCl, pH 6.8, and 0.1% SDS. The two gels are electrophoresed at 100 V for 13 hr at a constant temperature of 13 °C in an electrophoresis buffer consisting of 190 mM TrisHCl and pH 8.8, 0.05% SDS.
(§2) After electrophoresis, the gels are washed over 8 hr in 4 changes of 500 ml each of Renaturation Buffer (50 mM Tris.HCl, pH 7.5, 5 mM magnesium acetate, 1 mM dithiothreitol, 40 mM KCI, 400 µg/ml bovine serum albumin, 16% glycerol and 0.95 mM EDTA) at 4 °C.
(§3) The renatured proteins are assayed for DNA polymerase activity by incubating each of the two gels in 6 ml of Renaturation Buffer, 1.5 µM 4dNTPs, 4 µl of [a-^32P]dATP (800 Ci/mmol, 10 mCi/ml), and 80 µg of purified thioredoxin. One of the mixtures also contains 30 µM ddTTP (a 20-fold molar excess over dTTP). The mixtures are incubated for 4 hr at 37 °C (70 °C for 2 hr for thermophilic DNA polymerases).
(§4) After incubation the gels are washed for 8 hr against four changes of 5% trichloracetic acid and 1% sodium pyrophosphate. The gels are then dried and autoradiographed.
(§5) To determine whether a mutant DNA polymerase is discriminating more or less against ddTTP, the intensities of the radioactive bands are compared on the two gels that were incubated in the presence and absence of ddTTP, and the ratio of the signal in the two bands for the unmodified DNA polymerase is compared with the ratio of the signal in the two bands for each of the mutants.

[2] = biological target: T2, E. coli DNA polymerase I mutant Pol I C-K2, R R S A K T F I Y G L I Y G (Escherichia coli, UniProt P00582, A759T/F762Y/I760F/N761I); settings: renatured enzyme in gel; 1.5 µM 4dNTPs with or without 30 µM ddTTP; 37 °C 4 hr
T2 construct: the large fragment of E. coli DNA polymerase I (Klenow fragment); made in house; crude lysate, renatured in gel
Method: as §1, §2, §3, §4, §5

[3] = biological target: T3, E. coli DNA polymerase I mutant Pol I C-K3, R R S A K T F N F G L I Y G (Escherichia coli, UniProt P00582, A759T/I760F); settings: renatured enzyme in gel; 1.5 µM 4dNTPs with or without 30 µM ddTTP; 37 °C 4 hr
T3 construct: the large fragment of E. coli DNA polymerase I (Klenow fragment); made in house; crude lysate, renatured in gel
Method: as §1, §2, §3, §4, §5

[4] = biological target: T4, E. coli DNA polymerase I mutant Pol I C-K4, R R S A K A I I Y G L I Y G (Escherichia coli, UniProt P00582, F762Y/N761I); settings: renatured enzyme in gel; 1.5 µM 4dNTPs with or without 30 µM ddTTP; 37 °C 4 hr
T4 construct: the large fragment of E. coli DNA polymerase I (Klenow fragment); made in house; crude lysate, renatured in gel
Method: as §1, §2, §3, §4, §5

[5] = biological target: T5, E. coli DNA polymerase I mutant Pol I C-K5, R R S A K A I I F G L I Y G (Escherichia coli, UniProt P00582, N761I); settings: renatured enzyme in gel; 1.5 µM 4dNTPs with or without 30 µM ddTTP; 37 °C 4 hr
T5 construct: the large fragment of E. coli DNA polymerase I (Klenow fragment); made in house; crude lysate, renatured in gel
Method: as §1, §2, §3, §4, §5

[6] = biological target: T6, E. coli DNA polymerase I mutant Pol I C-K6 (F762Y), R R S A K A I N Y G L I Y G (Escherichia coli, UniProt P00582, F762Y)
T6 construct: the large fragment of E. coli DNA polymerase I (Klenow fragment); made in house; crude lysate, renatured in gel
Method: as §1, §2, §3, §4, §5

[7] = biological target: T7, E. coli DNA polymerase I, wild type (Pol I WT), R R S A K A I N F G L I Y G (Escherichia coli, UniProt P00582)
T7 construct: the large fragment of E. coli DNA polymerase I (Klenow fragment); made in house; crude lysate, renatured in gel
Method: as §1, §2, §3, §4, §5

[8] = biological target: T8, Taq DNA polymerase mutant Taq C-Q1, R D N A K T I N F G V L Y G (Thermus aquaticus, UniProt P19821, A661N/R660D); settings: renatured enzyme in gel; 1.5 µM 4dNTPs with or without 30 µM ddTTP; 70 °C 2 hr
T8 construct: the large fragment of Taq DNA polymerase (KlenTaq or _Taq DNA polymerase); made in house; crude lysate, renatured in gel
Method: as §1, §2, §3, §4, §5

[9] = biological target: T9, Taq DNA polymerase mutant Taq C-Q2, R R A A K T F I Y G F L Y G (Thermus aquaticus, UniProt P19821, F667Y/I665F/N666I/V669F); settings: renatured enzyme in gel; 1.5 µM 4dNTPs with or without 30 µM ddTTP; 70 °C 2 hr
T9 construct: the large fragment of Taq DNA polymerase (KlenTaq or _Taq DNA polymerase); made in house; crude lysate, renatured in gel
Method: as §1, §2, §3, §4, §5

[10] = biological target: T10, Taq DNA polymerase mutant Taq C-Q3, R R A A K T I I Y G V L Y G (Thermus aquaticus, UniProt P19821, F667Y/N666I); settings: renatured enzyme in gel; 1.5 µM 4dNTPs with or without 30 µM ddTTP; 70 °C 2 hr
T10 construct: the large fragment of Taq DNA polymerase (KlenTaq or _Taq DNA polymerase); made in house; crude lysate, renatured in gel
Method: as §1, §2, §3, §4, §5

[11] = biological target: T11, Taq DNA polymerase mutant Taq C-Q4, R R A A K T I I F G V L Y G (Thermus aquaticus, UniProt P19821, N666I); settings: renatured enzyme in gel; 1.5 µM 4dNTPs with or without 30 µM ddTTP; 70 °C 2 hr
T11 construct: the large fragment of Taq DNA polymerase (KlenTaq or _Taq DNA polymerase); made in house; crude lysate, renatured in gel
Method: as §1, §2, §3, §4, §5

[12] = biological target: T12, Taq DNA polymerase mutant Tqa C-Q5 (F667Y), R R A A K T I N Y G V L Y G (Thermus aquaticus, UniProt P19821, F667Y); settings: renatured enzyme in gel; 1.5 µM 4dNTPs with or without 30 µM ddTTP; 70 °C 2 hr
T12 construct: the large fragment of Taq DNA polymerase (KlenTaq or _Taq DNA polymerase); made in house; crude lysate, renatured in gel
Method: as §1, §2, §3, §4, §5

[13] = biological target: T13, Taq DNA polymerase, wild type (Taq WT), R R A A K T I N F G V L Y G (Thermus aquaticus, UniProt P19821); settings: renatured enzyme in gel; 1.5 µM 4dNTPs with or without 30 µM ddTTP; 70 °C 2 hr
T13 construct: the large fragment of Taq DNA polymerase (KlenTaq or _Taq DNA polymerase); made in house; crude lysate, renatured in gel
Method: as §1, §2, §3, §4, §5

[14] = renatured enzyme in gel, 1.5 µM 4dNTPs with or without 30 µM ddTTP, 37 °C 4 hr

T6 sequence (P00582 324-928 F762Y): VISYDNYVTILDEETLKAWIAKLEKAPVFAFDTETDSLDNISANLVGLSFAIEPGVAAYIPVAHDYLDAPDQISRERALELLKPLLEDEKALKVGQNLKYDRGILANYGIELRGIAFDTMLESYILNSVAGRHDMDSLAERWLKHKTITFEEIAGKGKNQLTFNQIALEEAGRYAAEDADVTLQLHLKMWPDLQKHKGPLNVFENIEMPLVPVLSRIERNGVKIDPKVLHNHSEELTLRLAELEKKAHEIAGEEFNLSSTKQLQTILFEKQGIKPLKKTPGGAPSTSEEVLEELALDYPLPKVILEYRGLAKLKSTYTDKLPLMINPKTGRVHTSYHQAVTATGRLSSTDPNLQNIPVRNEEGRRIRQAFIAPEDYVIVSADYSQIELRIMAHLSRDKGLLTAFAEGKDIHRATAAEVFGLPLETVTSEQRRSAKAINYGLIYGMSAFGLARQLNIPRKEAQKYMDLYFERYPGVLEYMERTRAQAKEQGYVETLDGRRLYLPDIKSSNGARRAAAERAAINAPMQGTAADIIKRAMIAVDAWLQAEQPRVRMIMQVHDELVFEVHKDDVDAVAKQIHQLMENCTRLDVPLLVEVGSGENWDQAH
T7 sequence (P00582 324-928): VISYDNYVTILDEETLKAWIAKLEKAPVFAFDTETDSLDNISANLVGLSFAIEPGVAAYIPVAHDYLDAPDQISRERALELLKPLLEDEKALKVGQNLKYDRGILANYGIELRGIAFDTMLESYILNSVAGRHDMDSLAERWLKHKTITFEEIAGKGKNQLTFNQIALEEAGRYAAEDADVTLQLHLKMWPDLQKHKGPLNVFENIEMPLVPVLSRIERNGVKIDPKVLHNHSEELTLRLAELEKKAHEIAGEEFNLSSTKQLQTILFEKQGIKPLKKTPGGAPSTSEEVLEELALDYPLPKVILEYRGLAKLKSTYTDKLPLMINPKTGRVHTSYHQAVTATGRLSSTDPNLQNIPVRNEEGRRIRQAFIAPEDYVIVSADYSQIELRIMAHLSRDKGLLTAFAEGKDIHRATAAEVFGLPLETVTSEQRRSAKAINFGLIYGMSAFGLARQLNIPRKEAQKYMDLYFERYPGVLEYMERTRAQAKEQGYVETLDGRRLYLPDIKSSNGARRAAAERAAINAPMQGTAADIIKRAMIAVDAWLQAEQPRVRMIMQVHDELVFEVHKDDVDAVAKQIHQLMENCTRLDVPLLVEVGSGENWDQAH
T10 sequence (P19821 236-832 N666I/F667Y): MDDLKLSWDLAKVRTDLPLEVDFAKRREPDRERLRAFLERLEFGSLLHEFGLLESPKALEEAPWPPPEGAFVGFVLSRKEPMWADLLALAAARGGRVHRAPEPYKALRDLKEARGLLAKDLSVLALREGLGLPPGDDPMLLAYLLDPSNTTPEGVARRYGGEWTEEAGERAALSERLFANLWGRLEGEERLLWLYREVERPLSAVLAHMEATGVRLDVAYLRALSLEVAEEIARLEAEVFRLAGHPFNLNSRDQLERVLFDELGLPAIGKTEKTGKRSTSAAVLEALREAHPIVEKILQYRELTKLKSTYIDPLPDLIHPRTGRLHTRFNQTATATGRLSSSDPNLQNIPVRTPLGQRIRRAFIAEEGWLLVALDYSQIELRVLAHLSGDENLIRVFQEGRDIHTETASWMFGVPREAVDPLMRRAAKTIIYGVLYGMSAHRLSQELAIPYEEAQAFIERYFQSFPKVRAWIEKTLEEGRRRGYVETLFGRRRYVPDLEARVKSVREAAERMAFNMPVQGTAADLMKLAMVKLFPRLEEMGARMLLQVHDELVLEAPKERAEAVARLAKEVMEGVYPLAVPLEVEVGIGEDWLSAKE
T3 sequence (P00582 324-928 A759T/I760F): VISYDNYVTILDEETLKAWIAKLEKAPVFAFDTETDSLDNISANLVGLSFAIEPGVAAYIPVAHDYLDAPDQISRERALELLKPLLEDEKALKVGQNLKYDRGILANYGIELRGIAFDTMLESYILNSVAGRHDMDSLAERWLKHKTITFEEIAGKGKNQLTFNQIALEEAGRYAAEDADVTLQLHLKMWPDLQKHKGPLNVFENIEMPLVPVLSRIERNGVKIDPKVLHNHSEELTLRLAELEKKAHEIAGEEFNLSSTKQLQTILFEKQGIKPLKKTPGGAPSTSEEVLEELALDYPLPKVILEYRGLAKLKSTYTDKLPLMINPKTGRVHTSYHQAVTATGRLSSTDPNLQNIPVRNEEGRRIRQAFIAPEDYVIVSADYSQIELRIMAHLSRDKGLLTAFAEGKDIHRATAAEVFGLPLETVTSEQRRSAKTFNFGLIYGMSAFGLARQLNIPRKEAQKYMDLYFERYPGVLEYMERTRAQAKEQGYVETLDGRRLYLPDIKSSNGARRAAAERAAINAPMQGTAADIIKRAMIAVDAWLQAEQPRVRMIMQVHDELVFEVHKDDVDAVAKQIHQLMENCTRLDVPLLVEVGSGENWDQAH
T9 sequence (P19821 236-832 I665F/N666I/F667Y/V669F): as the sequence (P19821 236-832 N666I/F667Y) above, with I430F, V434F counted along it
T4 sequence (P00582 324-928 N761I/F762Y): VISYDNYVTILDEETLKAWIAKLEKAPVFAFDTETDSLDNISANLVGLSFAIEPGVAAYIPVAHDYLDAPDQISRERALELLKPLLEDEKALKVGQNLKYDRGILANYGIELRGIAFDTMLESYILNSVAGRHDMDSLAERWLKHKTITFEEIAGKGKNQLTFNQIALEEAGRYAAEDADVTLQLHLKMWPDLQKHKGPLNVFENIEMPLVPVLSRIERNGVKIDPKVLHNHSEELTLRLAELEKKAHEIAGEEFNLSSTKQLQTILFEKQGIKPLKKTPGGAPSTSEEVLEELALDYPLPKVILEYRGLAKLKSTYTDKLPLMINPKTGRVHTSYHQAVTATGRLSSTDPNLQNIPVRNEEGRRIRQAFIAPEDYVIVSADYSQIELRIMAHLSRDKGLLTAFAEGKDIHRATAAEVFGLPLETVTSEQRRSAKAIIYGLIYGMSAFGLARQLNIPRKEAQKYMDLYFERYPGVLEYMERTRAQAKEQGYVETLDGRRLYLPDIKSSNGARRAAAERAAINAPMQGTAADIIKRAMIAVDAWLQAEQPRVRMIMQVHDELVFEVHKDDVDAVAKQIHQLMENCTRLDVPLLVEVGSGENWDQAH
T5 sequence (P00582 324-928 N761I): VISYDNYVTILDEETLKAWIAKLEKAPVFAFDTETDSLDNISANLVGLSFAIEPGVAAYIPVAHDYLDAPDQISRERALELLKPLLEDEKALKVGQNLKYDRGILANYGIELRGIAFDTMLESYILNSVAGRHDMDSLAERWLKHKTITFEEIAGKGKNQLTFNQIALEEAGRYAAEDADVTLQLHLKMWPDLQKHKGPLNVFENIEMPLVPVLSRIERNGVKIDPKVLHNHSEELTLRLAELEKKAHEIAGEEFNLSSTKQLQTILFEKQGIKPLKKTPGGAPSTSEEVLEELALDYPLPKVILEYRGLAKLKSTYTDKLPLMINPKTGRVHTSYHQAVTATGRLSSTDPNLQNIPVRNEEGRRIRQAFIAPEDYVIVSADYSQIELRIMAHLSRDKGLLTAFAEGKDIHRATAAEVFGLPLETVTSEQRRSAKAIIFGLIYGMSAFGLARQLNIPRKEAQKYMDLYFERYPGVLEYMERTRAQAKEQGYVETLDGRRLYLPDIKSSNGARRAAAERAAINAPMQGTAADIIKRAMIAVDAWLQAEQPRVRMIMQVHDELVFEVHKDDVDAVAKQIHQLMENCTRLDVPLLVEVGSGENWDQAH
T1 sequence (P00582 324-928 R755D/S756N/A759T/I760F/N761I/F762Y/L764F/I765L): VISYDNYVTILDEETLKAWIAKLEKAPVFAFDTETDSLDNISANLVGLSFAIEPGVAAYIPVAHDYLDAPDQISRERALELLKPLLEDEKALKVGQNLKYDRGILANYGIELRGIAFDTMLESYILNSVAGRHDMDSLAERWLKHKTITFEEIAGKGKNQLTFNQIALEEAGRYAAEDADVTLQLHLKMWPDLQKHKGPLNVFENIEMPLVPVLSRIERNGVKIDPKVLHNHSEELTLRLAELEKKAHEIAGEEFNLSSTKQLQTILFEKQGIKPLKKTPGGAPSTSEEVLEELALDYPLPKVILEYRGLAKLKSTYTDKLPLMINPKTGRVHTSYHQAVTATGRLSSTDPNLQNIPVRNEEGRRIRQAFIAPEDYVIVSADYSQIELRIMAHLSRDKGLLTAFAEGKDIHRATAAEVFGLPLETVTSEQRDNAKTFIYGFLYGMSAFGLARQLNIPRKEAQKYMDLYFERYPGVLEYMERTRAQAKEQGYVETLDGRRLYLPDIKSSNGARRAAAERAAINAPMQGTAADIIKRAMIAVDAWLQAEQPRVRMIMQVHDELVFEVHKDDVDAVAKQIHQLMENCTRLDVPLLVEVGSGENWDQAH
T2 sequence (P00582 324-928 A759T/I760F/N761I/F762Y): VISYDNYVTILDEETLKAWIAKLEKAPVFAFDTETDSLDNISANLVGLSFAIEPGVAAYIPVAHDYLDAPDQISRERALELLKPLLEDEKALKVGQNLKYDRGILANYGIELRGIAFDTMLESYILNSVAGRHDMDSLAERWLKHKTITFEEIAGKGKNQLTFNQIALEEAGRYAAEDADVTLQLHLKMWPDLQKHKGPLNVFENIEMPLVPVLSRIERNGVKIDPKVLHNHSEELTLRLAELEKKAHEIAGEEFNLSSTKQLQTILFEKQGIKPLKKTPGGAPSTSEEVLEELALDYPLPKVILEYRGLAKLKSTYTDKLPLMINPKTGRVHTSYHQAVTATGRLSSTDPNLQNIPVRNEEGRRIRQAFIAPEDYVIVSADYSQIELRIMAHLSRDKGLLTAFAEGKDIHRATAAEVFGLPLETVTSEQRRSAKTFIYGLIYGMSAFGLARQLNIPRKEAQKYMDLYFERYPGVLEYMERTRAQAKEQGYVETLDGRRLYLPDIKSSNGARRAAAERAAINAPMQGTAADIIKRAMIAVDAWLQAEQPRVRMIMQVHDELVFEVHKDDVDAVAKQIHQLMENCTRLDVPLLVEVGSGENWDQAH
T13 sequence (P19821 236-832 limits assumed): as the sequence (P19821 236-832 N666I/F667Y) above, with I431N, Y432F counted along it
T8 sequence (P19821 236-832 R660D/A661N): as the sequence (P19821 236-832 N666I/F667Y) above, with R425D, A426N, I431N, Y432F counted along it
T11 sequence (P19821 236-832 N666I): as the sequence (P19821 236-832 N666I/F667Y) above, with Y432F counted along it

Cc1cn([C@H]2CC[C@@H](COP(=O)(O)OP(=O)(O)OP(=O)(O)O)O2)c(=O)[nH]c1=O [ddTTP]
ddNTP Discrimination [1]: Low
ddNTP Discrimination [2]: Low
ddNTP Discrimination [3]: High
ddNTP Discrimination [4]: Low
ddNTP Discrimination [5]: High
activity at 30 µM ([6]; read-out: intensity of the bands in the presence of ddTTP relative to the absence of ddTTP): < 5%
ddNTP Discrimination [6, 14]: Low
intensity of the bands in the presence versus the absence of ddTTP ([7]; 30 µM ddTTP (20-fold molar excess over dTTP), 1.5 µM 4dNTPs, within a factor of two): approximately the same intensity
ddNTP Discrimination [7, 14]: High
ddNTP Discrimination [8]: High
ddNTP Discrimination [9]: Low
ddNTP Discrimination [10]: Low
ddNTP Discrimination [11]: High
ddNTP Discrimination [12]: Low
ddNTP Discrimination [13]: High
